Test results reported in patent US20210186838A1, “ACTIVE SUBSTANCE COMBINATIONS OF N-(4-AMINO-2-METHYLQUINOLIN-6-YL)-2-((4-ETHYLPHENOXY)METHYL)BENZAMIDE AND ONE OR MORE COSMETICALLY OR DERMATOLOGICALLY ACCEPTABLE PRESERVATIVES AND/OR PRESERVATIVE AUXILIARIES” (BEIERSDORF AG, priority 2017, published 2021).

Experiments:
subcutaneous adipocytes = assay: lipid assay (AdipoRed staining of total lipid); type: cell-based; details: for Assay in which the combination showed better activity than the corresponding active substance alone: Lipid: active substance combined with 10 ng/ml N-(4-amino-2-methylquinolin-6-yl)-2-((4-ethylphenoxy)methyl)benzamide, adipocytes, one week, AdipoRed, assay named in cell = better activity
Method: The lipid assay is performed on subcutaneous adipocytes. Cell culture dishes are inoculated with preadipocytes, which undergo differentiation into adipocytes. This is followed by treatment with the active substance for one week, during which the cells synthesize lipids and store them in vesicles. The total amount of lipid as a function of active substance effects is determined at the end of the culture period. This is done by staining the cell monolayer with the lipophilic fluorescent dye AdipoRed, followed by quantification by fluorescence spectroscopy.

human adipocytes = assay: LDH (lactate dehydrogenase) cytotoxicity assay; details: for Assay in which the combination showed better activity than the corresponding active substance alone: LDH: active substance combined with 10 ng/ml N-(4-amino-2-methylquinolin-6-yl)-2-((4-ethylphenoxy)methyl)benzamide, LDH in medium supernatant, assay named in cell = better activity (less LDH escape)
Method: The third assay performed is the LDH (lactate dehydrogenase) cytotoxicity assay. In this assay, the metabolic enzyme LDH is detected in the medium supernatant of the cell monolayer by adding a substrate for the enzyme to the cell culture supernatant. Reaction of the latter produces a color change, which is determined photometrically. The magnitude of the color change correlates here with the amount of LDH in the cell culture supernatant.
For all assays, the active substances were present as 1000× stocks dissolved to 10 mM in DMSO and were diluted 1:1000 in the appropriate cell culture medium for use.

dermal fibroblasts = assay: viability assay (BrdU incorporation, cell division rate); type: cell-based; details: 24 h; for Assay in which the combination showed better activity than the corresponding active substance alone: BrdU: active substance combined with 10 ng/ml N-(4-amino-2-methylquinolin-6-yl)-2-((4-ethylphenoxy)methyl)benzamide, assay named in cell = better activity
Description: The cells take up this synthetic nucleic acid, which is detectable by fluorescence detection, and incorporate it into newly synthesized genetic material during cell division. […] This allows conclusions to be drawn about the effect of the individual active substances on cell viability.

Compound	Assay in which the combination showed better activity than the corresponding active substance alone: Lipid (subcutaneous adipocytes)	Assay in which the combination showed better activity than the corresponding active substance alone: BrdU (dermal fibroblasts)	further results
CCCCC(O)CO (stereo not drawn) [1,2-Hexanediol/Hydiol 6, 1,2-Hexanediol]	Lipid	–	Assay in which the combination showed better activity than the corresponding active substance alone: LDH (human adipocytes): LDH
OCc1ccccc1 [Benzyl alcohol]	Lipid	–	–
OCCCCO [Butylene glycol/Natan, Butylene glycol]	Lipid	BrdU	–
CCOC(=O)c1ccc(O)cc1 [Ethylparaben/Konpar A, Ethylparaben]	–	BrdU	Assay in which the combination showed better activity than the corresponding active substance alone: LDH (human adipocytes): LDH
CCCCCCCC(=O)OCC(O)CO (stereo not drawn) [Glyceryl caprylate/emulsifier CY, Glyceryl caprylate]	–	BrdU	–
CC1(C)C(=O)N(CO)C(=O)N1CO [Kondant/DMDM hydantoin, DMDM hydantoin]	Lipid	BrdU	–
Cn1sccc1=O [Methylisothiazolinone/Konlon 950, Methylisothiazolinone]	Lipid	BrdU	–
CC(CO)CO [Methylpropanediol/Lolo, Methylpropanediol]	Lipid	–	–
CCc1ccc(OCc2ccccc2C(=O)Nc2ccc3nc(C)cc(N)c3c2)cc1 [N-(4-Amino-2-methylquinolin-6-yl)-2-((4-ethylphenoxy)methyl)benzamide]	–	–	rate of incorporation of BrdU (dermal fibroblasts; in combination with a preservative versus the corresponding preservative alone, FIG. 1): increase; accumulation of AdipoRed (differentiation performance of the adipocytes) (subcutaneous adipocytes; in combination with a preservative versus the corresponding preservative alone, one week treatment, FIG. 2): increase; rate of escape of LDH (human adipocytes; in combination with a preservative versus the corresponding preservative alone, human adipocytes, FIG. 3): decrease
Cc1cc(CC(C)CC(C)(C)C)n(O)c(=O)c1.NCCO (stereo not drawn) [Piroctone olamine/Octupus, Piroctone olamine]	Lipid	BrdU	–
O=C([O-])c1ccccc1.[Na+] [Sodium benzoate]	Lipid	–	Assay in which the combination showed better activity than the corresponding active substance alone: LDH (human adipocytes): LDH
O=C([O-])c1ccccc1O.[Na+] [Sodium salicylate]	Lipid	–	–
CCCCCCC(O)CO (stereo not drawn) [octane-1,2-diol]	–	BrdU	Assay in which the combination showed better activity than the corresponding active substance alone: LDH (human adipocytes): LDH
Phenoxyethanol [Phenoxyethanol/Phenoxetol]	Lipid	–	–
